Here are results for five compounds from patent US20240408119A1, “DELIVERY OF THERAPEUTIC ALKALOID COMPOUNDS” (priority 2022, published 2024).

A short description of series [1]: Metabolic Stability in Human Hepatocytes. In kind it is in vitro ADME. The following applies: cryopreserved human hepatocytes, 37° C. The procedure:
A 2.5 uL aliquot of 100 μM test compound was incubated with 247.5 uL of cryopreserved hepatocytes suspended in serum-free incubation medium at 5×10^5 viable cells/mL. The mixture was incubated at 37° C. and shaken at 500 rpm for the designated time points (0.5, 15, 30, 60, 90, or 120 min). At each time point, 25 μL aliquot of incubation mixture was transferred to 125 μL of cold acetonitrile containing internal standard, followed by centrifugation for 30 min at 3,220 g. 100 μL of supernatant was mixed with 100 μL of distilled water for analysis by LC-MS/MS. Peak areas were determined from extracted ion chromatograms and in vitro half-life (t1/2) was determined from the concentration vs time regression slope, in vitro t1/2=0.693/k. Conversion of the in vitro t1/2 (in min) into the in vitro intrinsic clearance (in vitro CLint, in μL/min/10^6 cells) is done using: in vitro CLint=kV/N.

Series [2] in a line: Plasma Stability Assay (Example A3), rat plasma. In kind it is in vitro ADME. The following applies: prodrug remaining, 10 μM, 37° C. The text has this: (§1) The data is represented in the table below.
Series [3] in a line: Plasma Stability Assay (Example A3), human plasma. In kind it is in vitro ADME. The following applies: prodrug remaining, 10 μM, 37° C.
Text: as §1

Series [4] is classed as in vitro ADME, mouse. Conditions: prodrug remaining, 5 μM, 37° C. The procedure: (§2) Each test was carried out in duplicate for each time point; 0 min, 15 min, 30 min, 60 min, 120, 240 min. […]
Series [5] is classed as in vitro ADME, human. Conditions: prodrug remaining, 5 μM, 37° C. The procedure: as §2
Series [6] is described as follows: Hydrolysis Assay - Condition 1 (SGF). Format: physicochemical. Conditions: SGF with pepsin pH 1.5, 37° C., 0.5 mM. The procedure:
50 μL of compound (10 mM) in DMSO was diluted into 950 μL of Simulated Gastric Fluid (SGF) with pepsin (pH 1.5) to a final concentration of 0.5 mM. The hydrolysis kinetics were conducted at 37° C. and measured by LCMS at a certain time interval.
(§3) The corresponding LCMS chromatogram were recorded and the conversions were calculated by integration of each peak.
(§4) • 1) LCMS spectra were obtained using Agilent 1200G1956A or SHIMADZU LCMS-2020. Standard LCMS conditions were as follows (running time 1.55 minutes): • Acidic condition: Mobile Phase A: 0.0375% TFA in water (v/v). Mobile Phase B: 0.01875% TFA in acetonitrile (v/v); Column: Kinetex EVO C18 30*2.1 mm, 5 μm. • Basic condition: Mobile Phase A: 0.025% NH3·H2O in water (v/v). Mobile Phase B: Acetonitrile; Column: Kinetex EVO C18 2.1×30 mm, 5 μm. • 2) Conversion (%)=peak area 1/(peak area 1+peak area 2)*100%, peak area 1 is the integration of hydrolyzed product, peak area 2 is the integration of starting material.

The nature of series [7]: Hydrolysis Assay - Condition 2 (DI Water). Format: physicochemical. The following applies: 25° C., 0.5 mM. The protocol:
50 μL of compound (10 mM) in DMSO was diluted into 950 μL of DI water to a final concentration of 0.5 mM. The hydrolysis kinetics were conducted at 25° C. and measured by LCMS at a certain time interval.
as §3, §4

Each structure is given as a SMILES string. Like-named read-outs stand apart in the source and are kept apart here. A value given as a limit tells only on which side of the number the result lay.

In turn, `COc1ccc([C@@]23CCC(OP(=O)(O)OCOC(=O)C(C)C)=C[C@@H]2N(C)CC3)cc1OC` [Compound 408, [[(3aS,7aS)-3a-(3,4-dimethoxyphenyl)-1-methyl-3,4,5,7a-tetrahydro-2H-indol-6-yl]oxy-hydroxy-phosphoryl]oxymethyl 2-methylpropanoate] displayed a half-life at 1 μM in series [1] of 3.67 h. Also, the hepatocyte CLint at 1 μM in series [1] worked out at 6.4 µL/min/1e6 cells. Moreover, the “Rat Plasma Prodrug (%)” value in series [2] (0 min) is 100.0%; in series [2] (10 min), 63.8%; in series [2] (30 min), 29.2%; in series [2] (60 min), 8.2%; in series [2] (120 min) it was 0.8%; in series [2] (240 min) it was 0.0%. In addition, the “Human Plasma Prodrug (%)” value in series [3] (0 min) is listed as 100.0%; in series [3] (10 min) it was 94.2%; in series [3] (30 min), 82.6%; in series [3] (60 min), 69.1%; in series [3] (120 min), 45.4%; in series [3] (240 min) it was 23.5%.

In series [1], `COc1ccc([C@@]23CCC(OP4(=O)OCCCO4)=C[C@@H]2N(C)CC3)cc1OC` [Compound 422, 2-(((3aS,7aS)-3a-(3,4-dimethoxyphenyl)-1-methyl-2,3,3a, 4,5,7a-hexahydro-1H-indol-6-yl)oxy)-1,3,2-dioxaphosphinane 2-oxide] returned a half-life at 1 μM of 6.1 h. This compound displayed a hepatocyte CLint at 1 μM in series [1] of 3.9 µL/min/1e6 cells. Moreover, the “Rat Plasma Prodrug (%)” value is 100.0% in series [2] (0 min); greater than 99% in series [2] (10 min); greater than 99% in series [2] (30 min); greater than 99% in series [2] (60 min); 91.0% in series [2] (120 min); 76.8% in series [2] (240 min). The “Human Plasma Prodrug (%)” value in series [3] (0 min) is listed as 100.0%; in series [3] (10 min) it was 89.4%; in series [3] (30 min), 73.1%; in series [3] (60 min), 62.4%; in series [3] (120 min) it was 39.2%; in series [3] (240 min), 19.6%.

`COc1ccc([C@@]23CCC(OP4(=O)OC(C)CC(C)O4)=C[C@@H]2N(C)CC3)cc1OC` (stereo partly drawn) [Compound 423, 2-(((3aS,7aS)-3a-(3,4-dimethoxyphenyl)-1-methyl-2,3,3a, 4,5,7a-hexahydro-1H-indol-6-yl)oxy)-4,6-dimethyl-1,3,2-dioxaphosphinane 2-oxide]: in series [1], the half-life at 1 μM came to 0.95 h. This compound had a hepatocyte CLint at 1 μM in series [1] of 24.4 µL/min/1e6 cells. Besides, the “Rat Plasma Prodrug (%)” value in series [2] (0 min) is reported as 100.00%; in series [2] (10 min), greater than 99%; in series [2] (30 min), greater than 99%; in series [2] (60 min), 91.05%; in series [2] (120 min) it was 83.29%; in series [2] (240 min), 67.32%. Besides, the “Human Plasma Prodrug (%)” value in series [3] (0 min) was 100.00%; in series [3] (10 min) it was greater than 99%; in series [3] (30 min), greater than 99%; in series [3] (60 min) it was 98.77%; in series [3] (120 min) it was 97.80%; in series [3] (240 min), 89.67%.

Compound `COc1ccc([C@@]23CCC(OP(=O)(O)OCOC(=O)C(C)(C)C)=C[C@@H]2N(C)CC3)cc1OC` [Compound 409, [[(3aS,7aS)-3a-(3,4-dimethoxyphenyl)-1-methyl-3,4,5,7a-tetrahydro-2H-indol-6-yl]oxy-hydroxy-phosphoryl]oxymethyl 2,2-dimethylpropanoate] displayed a half-life at 1 μM in series [1] of 25.7 h. Further, the hepatocyte CLint at 1 μM in series [1] turned out to be 1.1 µL/min/1e6 cells. For the same compound, the “Rat Plasma Prodrug (%)” value was determined as 100.0% in series [2] (0 min); 89.9% in series [2] (10 min); 81.2% in series [2] (30 min); 71.0% in series [2] (60 min); 44.5% in series [2] (120 min); 22.7% in series [2] (240 min). The “Human Plasma Prodrug (%)” value in series [3] (0 min) is 100.0%; in series [3] (10 min), greater than 99%; in series [3] (30 min) it was 95.2%; in series [3] (60 min), 93.0%; in series [3] (120 min) it was 87.3%; in series [3] (240 min), 75.8%.

In the case of `CCN(C)C(=O)OC1=C[C@@H]2N(C)CC[C@]2(c2ccc(OC)c(OC)c2)CC1` [Compound 326, [(3aS,7aS)-3a-(3,4-dimethoxyphenyl)-1-methyl-3,4,5,7a-tetrahydro-2H-indol-6-yl] N-ethyl-N-methyl-carbamate], the “Mouse Plasma Prodrug (%)” value in series [4] (0 min) was 100.0%; in series [4] (15 min), greater than 99%; in series [4] (30 min) it was 96.6%; in series [4] (60 min), greater than 99%; in series [4] (120 min), greater than 99%; in series [4] (240 min), 98.5%. The “Human Plasma Prodrug (%)” value in series [5] (0 min) was 100.0%; in series [5] (15 min), 98.2%; in series [5] (30 min), 99.9%; in series [5] (60 min) it was 98.4%; in series [5] (120 min), greater than 99%; in series [5] (240 min), 93.9%. The “Condition 1 Conversion (%)” value in series [6] (1 min), in series [6] (5 min), in series [6] (30 min), in series [6] (1 h), in series [6] (4 h) and in series [6] (24 h) was 0% in each case. For the same compound, the “Condition 2 Conversion (%)” value in series [7] (1 min), in series [7] (5 min), in series [7] (30 min), in series [7] (1 h), in series [7] (4 h) and in series [7] (24 h) was 0% throughout.

Usually half-life stands for the time needed for the level to fall by half in the phase considered. Low values mean rapid decline, high ones slow decline. What is called hepatocyte CLint is the capacity of the preparation to metabolise the compound, expressed as a volume cleared per time.
